From patent US20170081338A1, “SUBSTITUTED HETEROARYL COMPOUNDS AND METHODS OF USE” (Sunshine Lake Pharma Co., Ltd., priority 2015, published 2017)

Columns and labels:
[1] = Compound stability in rat liver microsomes; assay type: in vitro ADME; details: pH 7.4; for half-life at 5 μM: rat liver microsomes 0.5 mg protein/mL, compound 5 μM, NADPH, 37° C., read-out: Rat T1/2; for CLint scaled at 5 μM: rat liver microsomes, in vivo CLint extrapolated
How it was run: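 Parent compound depletion (5 μM) was tracked by LC/MS/MS over 60 min at 37° C using NADPH-fortified microsomes at 0.5 mg protein/mL. Dextromethorphan served as positive control and denatured microsomes as negative control.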

[2] = molecular target: T1, FLT3 (h) (Homo sapiens, UniProt P36888); experiment: FLT3 (h) kinase assay; assay type: biochemical
T1 construct: purchased Millipore UK Ltd (contract assay service)
T1 sequence (P36888 27-993): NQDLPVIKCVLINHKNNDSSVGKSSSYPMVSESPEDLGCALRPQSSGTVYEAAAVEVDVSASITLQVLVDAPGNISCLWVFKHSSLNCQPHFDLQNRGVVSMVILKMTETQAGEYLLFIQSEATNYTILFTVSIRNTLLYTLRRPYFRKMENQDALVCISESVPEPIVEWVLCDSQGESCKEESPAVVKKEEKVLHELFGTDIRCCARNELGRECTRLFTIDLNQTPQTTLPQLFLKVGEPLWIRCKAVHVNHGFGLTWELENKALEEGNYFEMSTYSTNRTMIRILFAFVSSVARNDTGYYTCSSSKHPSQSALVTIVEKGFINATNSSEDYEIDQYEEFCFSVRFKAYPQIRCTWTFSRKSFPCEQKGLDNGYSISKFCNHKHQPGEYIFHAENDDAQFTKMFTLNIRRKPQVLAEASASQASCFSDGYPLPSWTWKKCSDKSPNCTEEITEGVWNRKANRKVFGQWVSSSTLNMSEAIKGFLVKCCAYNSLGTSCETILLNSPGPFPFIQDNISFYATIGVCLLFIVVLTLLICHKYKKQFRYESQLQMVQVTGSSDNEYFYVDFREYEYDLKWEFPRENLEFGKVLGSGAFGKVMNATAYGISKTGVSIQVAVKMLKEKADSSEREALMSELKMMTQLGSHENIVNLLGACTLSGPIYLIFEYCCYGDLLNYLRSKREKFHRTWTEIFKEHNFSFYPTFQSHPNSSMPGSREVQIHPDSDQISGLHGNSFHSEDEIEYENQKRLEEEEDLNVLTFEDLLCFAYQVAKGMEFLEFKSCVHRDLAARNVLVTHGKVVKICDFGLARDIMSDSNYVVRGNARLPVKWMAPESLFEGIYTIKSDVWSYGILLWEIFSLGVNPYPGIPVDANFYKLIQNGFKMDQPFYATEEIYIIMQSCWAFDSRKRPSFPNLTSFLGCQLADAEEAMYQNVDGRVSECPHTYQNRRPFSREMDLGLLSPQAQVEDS
Procedure: Kinase assays can be performed by measurement of incorporation of γ-^33P ATP into immobilized myelin basic protein (MBP). High binding white 384 well plates (Greiner) are coated with MBP (Sigma #M-1891) by incubation of 60 μL/well of 20 μg/mL MBP in Tris-buffered saline (TBS; 50 mM Tris pH 8.0, 138 mM NaCl, 2.7 mM KCl) for 24 h at 4° C. Plates are washed 3× with 100 μL TBS. Kinase reactions are carried out in a total volume of 34 μL in kinase buffer (according to the need to make, for example, 5 mM Hepes pH 7.6, 15 mM NaCl, 0.01% bovine gamma globulin (Sigma #1-5506), 10 mM MgCl2, 1 mM DTT, 0.02% TritonX-100). Compound dilutions are performed in DMSO and added to assay wells to a final DMSO concentration of 1%. Each data point is measured in duplicate, and at least two duplicate assays are performed for each individual compound determination. […] A mixture of unlabeled ATP and γ-^33P ATP is added to start the reaction (2×10^6 cpm of γ-^33P ATP per well (3000 Ci/mmole) and 10 μM unlabeled ATP, typically. The reactions are carried out for 1 h at room temperature with shaking. Plates are washed 7× with TBS, followed by the addition of 50 µL/well scintillation fluid (Wallac). Plates are read using a Wallac Trilux counter. This is only one format of such assays; various other formats are possible, as known to one skilled in the art. […]

Cn1cc(Nc2ncc(Cl)c(N[C@@H]3COC4C3OC[C@@H]4NS(=O)(=O)CC(F)(F)F)n2)cn1 (stereo partly drawn) [Ex. 27, N-((3S,6R)-6-((5-chloro-2-((1-methyl-1H-pyrazol-4-yl)amino)pyrimidin-4-yl)amino)hexahydrofuro[3,2-b]furan-3-yl)-2,2,2-trifluoroethanesulfonamide]
half-life at 5 μM [1]: 56.5 min | CLint scaled at 5 μM [1]: 44 mL/min/kg

Cn1cc(Nc2ncc(Cl)c(N[C@@H]3COC4C3OC[C@@H]4NS(=O)(=O)CC3CC3)n2)cn1 (stereo partly drawn) [Ex. 25, N-((3S,6R)-6-((5-chloro-2-((1-methyl-1H-pyrazol-4-yl)amino)pyrimidin-4-yl)amino)hexahydrofuro[3,2-b]furan-3-yl)-1-cyclopropylmethanesulfonamide]
half-life at 5 μM [1]: 69.8 min | CLint scaled at 5 μM [1]: 35.6 mL/min/kg

Cn1cc(Nc2ncc(Cl)c(N[C@@H]3COC4C3OC[C@@H]4NS(=O)(=O)CC(C)(C)C#N)n2)cn1 (stereo partly drawn) [Ex. 26, N-((3S,6R)-6-((5-chloro-2-((1-methyl-1H-pyrazol-4-yl)amino)pyrimidin-4-yl)amino)hexahydrofuro[3,2-b]furan-3-yl)-2-cyano-2-methylpropane-1-sulfonamide]
half-life at 5 μM [1]: 40.9 min | CLint scaled at 5 μM [1]: 60.7 mL/min/kg

CC(C)CS(=O)(=O)N[C@H]1COC2C1OC[C@H]2Nc1nc(Nc2cnn(C)c2)ncc1Cl (stereo partly drawn) [Ex. 2, N-((3S,6R)-6-((5-chloro-2-((1-methyl-1H-pyrazol-4-yl)amino)pyrimidin-4-yl)amino)hexahydrofuro[3,2-b]furan-3-yl)-2-methylpropane-1-sulfonamide]
half-life at 5 μM [1]: 67.3 min | CLint scaled at 5 μM [1]: 36.9 mL/min/kg | IC50 [2]: 846 nM
